“Also recorded” adds a separate entry of the source.
Key:
C6 glioma cells = assay: Cell rounding, C6 glioma cells; type: cell-based, rat; details: 2 μM
liver tumors = details: dimethyl- or diethylnitrosamine, rats; cited from earlier work
[1] = tested on: neoplasia of the forestomach; details: benzo(a)pyrene, mice; cited from earlier work
[2] = tested on: toxic side effects of HECNU; details: rats; cited from earlier work
BALB/MK keratinocytes = assay: Apoptosis by FACS in BALB/MK keratinocytes; type: cell-based, murine; details: 4 μM (not shown)
Procedure: Cells were cultured in plastic tissue culture dishes for 48 hours in presence of growth media as described above, until reaching 40-50% confluency. Disulfiram was then added to the cells for 20 hours. The cells were removed from the plates by EDTA-trypsin and fixed in ice-cold 70% ethanol (BioLab, Israel) in -20° C. for 2 hr to overnight. The fixed cells (2-5×10^6) were washed once with HEPES-buffered saline (HBSS) and incubated with 0.5 mg/ml RNAseH (Boehringer Mannheim). Afterwards the cells were resuspended in HBSS containing 50 μg/ml propidium iodide (Sigma) and subsequently analyzed on a FACSort flow cytometer (Beckton Dickinson Inc.) using Lysis II software. For the analysis, 10,000 cells were examined from each sample. The percentage of the hypodiploid cells was measured (Darzynkiewicz, 1992; Afanasyev, 1993). The cell cycle histogram was divided into four regions according to the cell cycle phases: Ap, apoptotic cells; G1, diploid cells; S, intermediate cells; and G2 /M, tetraploid cells.

murine leukemia = details: 3 mg/mouse; cited from earlier work
[3] = tested on: ifosfamide- and cyclophosphamide-induced urotoxicity; details: administered simultaneously with ifosfamide or cyclophosphamide, mice; cited from earlier work
[4] = tested on: Lewis lung (D122) metastasis in the lungs; assay: Lewis lung carcinoma metastasis, i.v. model; type: in vivo, C57/BL mice
Source text: The Lewis lung carcinoma (3LL), which originated spontaneously in a C57/BL/6J (H-2^b) mouse, is a malignant tumor that produces spontaneous lung metastases. The metastatic clone D122, kindly provided by Prof. Lea Eisenbach (Weizmann Institute of Science, Rehovot, Israel), was used herein for tissue culture and for in vivo experiments. The cell cultures were maintained in DMEM supplemented with 10% heat-inactivated FCS, glutamine, antibiotics, sodium pyruvate and nonessential amino acids.
To distinguish between the effect on the migration of the cells from the main tumor and the development of a tumor from a metastatic foci, the i.v. model was used. D122 cells (5×10^5) were injected i.v. to the tail of C57/B1 male mice and after 24 days mice were killed and their lungs weighed. Treatment with disulfiram was started 3 days following the injection of D122 cells. […]
To distinguish between the effect on the migration of the cells from the main tumor and the development of a tumor from a metastatic foci, the i.v. metastastis model was used as described in section (f) of materials and Methods above. D122 cells were injected i.v. to the tail of C57/B1 male mice. Three days after, disulfiram was administered to the mice per os 3 times per week, at concentrations of 13-40 μg/mouse.

intestinal cancer = details: azoxymethane, rats; cited from earlier work
BSMC = assay: TUNEL assay for apoptosis, BSMC; type: cell-based, bovine; details: 1 μM, 6 hours
Procedure: Cells were cultured on microscope slides for 48 hours in presence of growth media as described above, until reaching 40-50% confluency. Disulfiram was then added to the cells for 6 hours or for 20 hours in the case of BALB/MK keratinocytes, fixed with 4% paraformaldehyde and washed three times with PBS. Apoptosis was analyzed by the in situ TUNEL staining carried out as described (Wride, 1994). Briefly, microscope slides were incubated for 15 min in 2×SSC buffer at 60° C., washed in DDW and incubated with 20 μg/ml proteinase K (Boehringer Mannheim) for 15 min at room temperature. After a wash with DDW, endogenous peroxidases were inactivated by incubating the slides with 2% H2 O2 in PBST (PBS with 0.05% Tween 20) for 10 min at room temperature. Slides were then incubated in TdT buffer (Boehringer Mannheim) for 5 min at room temperature, and a reaction mixture containing 5×TdT buffer and 1 μl biotin-21-dUTP (Clontech, 1 mM stock) and 8 units of the TdT enzyme (Boehringer Mannheim) in total volume of 50 μl was subsequently added. The reactions were carried out at 37° C. for 1.5 hr in a humid chamber. The slides were washed in 2×SSC, DDW and finally with PBS and covered with 10% skim milk in PBST for 15 min. […]

[5] = tested on: tumor progression from papilloma to squamous cell carcinoma; details: murine skin multistage carcinogenesis model; cited from earlier work
aldehyde dehydrogenases = details: cited from earlier work
superoxide dismutase = details: in vivo; cited from earlier work
[6] = in vivo; cited from earlier work
dopamine-β-hydroxylases = details: cited from earlier work
Meth A tumor cell = details: together with ascorbic acid, in vitro; cited from earlier work

CCN(CC)C(=S)SSC(=S)N(CC)CC [disulfiram, Bis(diethylthiocarbamoyl) disulfide]
cell rounding (C6 glioma cells): did not change their shape to the rounded form | interference with induction of liver tumors (liver tumors): interfere with induction of cancer | interference with neoplasia of the forestomach [1]: interfere with induction of cancer | effect on anti-tumor potency of HECNU [2]: without inhibiting its anti-tumor potency | protection against toxic side effects of HECNU [2]: protected rats | apoptosis by FACS (BALB/MK keratinocytes): did not exhibit induction of apoptosis | potentiation of nitrogen mustard (HN2) cytotoxicity (murine leukemia): potentiate | protection against urotoxicity [3]: protect mice | metastasis in the lungs compared with water-fed control (in words) ([4]; 13-40 μg, 3 times a week, 24 days, n=6, p=0.023-0.037): significantly smaller | inhibition of the development of metastatic foci in the lungs ([4]; 13-40 μg/mouse per os 3 times per week): 83-95% | decrease of metastasis to the lungs ([4]; 13-40 μg/mouse, 3 times a week, 24 days): 6-19 fold | interference with induction of intestinal cancer (intestinal cancer): interfere with induction of cancer | apoptosis by TUNEL method (BSMC): not labeled; also recorded: did not induce | inhibition of tumor progression [5]: inhibit tumor progression | inhibition of aldehyde dehydrogenases (aldehyde dehydrogenases): inhibit | inhibition of superoxide dismutase (superoxide dismutase): inhibited superoxide dismutase | conversion into main metabolite diethyldithiocarbamate (DDC) [6]: quickly converted | inhibition of dopamine-β-hydroxylases (dopamine-β-hydroxylases): inhibit | inhibition of Meth A tumor cell proliferation (Meth A tumor cell): augmented inhibition
